Assays:
Assay in all cases: relative viability (nuclei count vs DMSO), 5 days (fraction); higher = more cells survive
[1] = compound: CN1CCC(CC1)OC2=CC(=C(C=C2)NC3=NC=C4C(=N3)N(C(=O)N4C)C5CCCC5)OC [AZ3146] + C[C@@H](Oc1cc(-c2cnn(C3CCNCC3)c2)cnc1N)c1c(Cl)ccc(F)c1Cl [Crizotinib] (partner 1 µM)
Method in brief: (§1)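 Cells from lung cancer lines were seeded into 1536-well plates and, one day later, dosed by pin tool. Treatments were either a single drug or a fixed dose of an anchor drug with five library-drug doses (not always all listed) in √10 steps. After 5 days, nuclei were stained in a one-step fixation (final 0.05% Triton X-100, 1% formaldehyde, 1 ug/ml Hoechst) and counted on 4× images, and relative viability is the treated-to-vehicle nuclei ratio, as the median of duplicate plates.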

[2] = compound: CCOC(=O)CCNc1cc(N2CCc3ccccc3CC2)nc(-c2ccccn2)n1 [GSK-J4] + O=C(c1cc(Cc2n[nH]c(=O)c3ccccc23)ccc1F)N1CCN(C(=O)C2CC2)CC1 [Olaparib] (partner 8 µM)
Method in brief: as §1

[3] = compound: CCOC(=O)CCNc1cc(N2CCc3ccccc3CC2)nc(-c2ccccn2)n1 [GSK-J4] + C[C@]1(O)C[C@@H](c2nc(-c3ccc4ccc(-c5ccccc5)nc4c3)c3c(N)nccn32)C1 [Linsitinib] (partner 1 µM)
Method in brief: as §1

[4] = compound: CCOC(=O)CCNc1cc(N2CCc3ccccc3CC2)nc(-c2ccccn2)n1 [GSK-J4] + CC(=O)c1c(C)c2cnc(Nc3ccc(N4CCNCC4)cn3)nc2n(C2CCCC2)c1=O [Palbociclib] (partner 0.5 µM)
Method in brief: as §1

## UMC-11
[1]; first compound 0.08 µM
  relative viability: 0.569
[1]; first compound 0.253 µM
  relative viability: 0.636
[1]; first compound 0.8 µM
  relative viability: 0.461
[1]; first compound 2.53 µM
  relative viability: 0.177
[1]; first compound 8 µM
  relative viability: 0.136
[2]; first compound 0.5 µM
  relative viability: 0.364
[2]; first compound 1.581 µM
  relative viability: 0.324
[2]; first compound 5 µM
  relative viability: 0.299
[2]; first compound 15.81 µM
  relative viability: 0.353
[2]; first compound 50 µM
  relative viability: 0.272
[3]; first compound 0.5 µM
  relative viability: 0.97
[3]; first compound 1.581 µM
  relative viability: 0.967
[3]; first compound 5 µM
  relative viability: 1.02
[3]; first compound 15.81 µM
  relative viability: 0.983
[3]; first compound 50 µM
  relative viability: 0.572
[4]; first compound 0.5 µM
  relative viability: 0.367
[4]; first compound 1.581 µM
  relative viability: 0.288
[4]; first compound 15.81 µM
  relative viability: 0.35
[4]; first compound 50 µM
  relative viability: 0.241
